Measured values as given in patent US7074789B2, “Kinase inhibitors” (Amgen Inc., priority 1999, dated 2006).

Tests used:
Assay type in all cases: biochemical
AKT = target: T1, AKT (Homo sapiens, UniProt Q9Y243); assay: Kinase inhibition assay (33P transfer), AKT; details: Table 2, kinase inhibition class; read-out: AKT3-1
T1 construct: Kinases are expressed as either kinase domains or full length constructs; made in house
Procedure, shortened: (§1)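 Kinase domains or full-length kinases, GST- or His-tagged and expressed in E. coli or baculovirus/High Five cells, transferred 33PO4 from ATP onto plate-bound poly(Glu,Tyr) 4:1 or poly(Arg,Ser) 3:1. After incubation, plates were washed with 0.5% phosphoric acid and counted by liquid scintillation.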

Zap-70 = target: T2, Zap-70 (Homo sapiens, UniProt P43403); assay: Kinase inhibition assay (33P transfer), Zap-70; details: Table 3; read-out: Zap-1
T2 construct: Kinases are expressed as either kinase domains or full length constructs; made in house
T2 sequence (P43403 1-619): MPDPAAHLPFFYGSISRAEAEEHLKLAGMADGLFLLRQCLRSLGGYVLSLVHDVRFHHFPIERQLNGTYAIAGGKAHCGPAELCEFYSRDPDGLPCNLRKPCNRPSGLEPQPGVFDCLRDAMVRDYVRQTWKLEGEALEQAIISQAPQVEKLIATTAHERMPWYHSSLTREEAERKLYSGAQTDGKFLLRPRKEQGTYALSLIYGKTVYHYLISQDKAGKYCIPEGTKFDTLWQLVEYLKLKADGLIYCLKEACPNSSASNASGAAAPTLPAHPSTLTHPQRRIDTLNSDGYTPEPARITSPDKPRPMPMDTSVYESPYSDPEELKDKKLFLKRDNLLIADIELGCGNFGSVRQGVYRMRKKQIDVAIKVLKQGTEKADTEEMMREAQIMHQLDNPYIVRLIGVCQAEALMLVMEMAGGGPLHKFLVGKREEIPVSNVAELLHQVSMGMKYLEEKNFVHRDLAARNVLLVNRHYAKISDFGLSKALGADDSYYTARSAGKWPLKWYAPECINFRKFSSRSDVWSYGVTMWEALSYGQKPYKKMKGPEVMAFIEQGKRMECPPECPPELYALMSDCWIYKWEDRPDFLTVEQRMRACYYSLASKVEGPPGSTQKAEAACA
Procedure, shortened: as §1

Itk = target: T3, Itk (Homo sapiens, UniProt Q08881); assay: Kinase inhibition assay (33P transfer), Itk; details: Table 3; read-out: Itk-1
T3 construct: Kinases are expressed as either kinase domains or full length constructs; made in house
T3 sequence (Q08881 1-620): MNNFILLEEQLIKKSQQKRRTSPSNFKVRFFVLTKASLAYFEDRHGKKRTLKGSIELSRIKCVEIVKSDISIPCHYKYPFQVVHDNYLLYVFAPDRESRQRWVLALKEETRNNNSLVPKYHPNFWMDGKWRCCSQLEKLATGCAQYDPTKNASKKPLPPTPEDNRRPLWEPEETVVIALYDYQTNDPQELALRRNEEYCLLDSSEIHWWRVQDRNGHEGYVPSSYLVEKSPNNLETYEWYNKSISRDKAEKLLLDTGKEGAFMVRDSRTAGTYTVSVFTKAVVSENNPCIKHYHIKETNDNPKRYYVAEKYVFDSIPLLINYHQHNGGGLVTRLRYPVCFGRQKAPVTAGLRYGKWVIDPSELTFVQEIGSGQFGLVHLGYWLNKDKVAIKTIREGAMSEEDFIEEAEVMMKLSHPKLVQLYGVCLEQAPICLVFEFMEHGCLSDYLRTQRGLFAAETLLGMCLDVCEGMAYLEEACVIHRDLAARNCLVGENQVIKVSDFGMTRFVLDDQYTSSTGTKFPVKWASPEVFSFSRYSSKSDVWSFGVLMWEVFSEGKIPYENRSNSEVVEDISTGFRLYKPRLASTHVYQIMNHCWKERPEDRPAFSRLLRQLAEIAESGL
Procedure, shortened: (§2)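 Using immobilised substrate copolymers (poly(Glu,Tyr) 4:1; poly(Arg,Ser) 3:1) and [33P]ATP, purified fusion kinases were allowed to react; plates were then rinsed in 0.5% phosphoric acid and counted in a scintillation detector. Half-maximal inhibition of label transfer defines IC50.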

c-Met = target: T4, c-Met (Homo sapiens, UniProt P08581); assay: Kinase inhibition assay (33P transfer), c-Met; details: Table 2, kinase inhibition class; read-out: Met-1
T4 construct: Kinases are expressed as either kinase domains or full length constructs; made in house
Procedure, shortened: as §2

Tek = target: T5, Tek (Homo sapiens, UniProt Q02763); assay: Kinase inhibition assay (33P transfer), Tek; details: read-out: Tek-1
T5 construct: Kinases are expressed as either kinase domains or full length constructs; made in house
Procedure, shortened: as §2

Lck = target: T6, Lck (Homo sapiens, UniProt P06239); assay: Kinase inhibition assay (33P transfer), Lck; details: Table 3; read-out: Lck-1
T6 construct: Kinases are expressed as either kinase domains or full length constructs; made in house
Procedure, shortened: as §1

EGFR = target: T7, EGFR (Homo sapiens, UniProt P00533); assay: Kinase inhibition assay (33P transfer), EGFR; details: Table 2, kinase inhibition class; read-out: EGFR-1
T7 construct: Kinases are expressed as either kinase domains or full length constructs; made in house
Procedure, shortened: as §2

IGFR-1 = target: T8, IGFR-1 (Homo sapiens, UniProt P08069); assay: Kinase inhibition assay (33P transfer), IGFR-1; details: Table 2, kinase inhibition class
T8 construct: Kinases are expressed as either kinase domains or full length constructs; made in house

Kdr = target: T9, Kdr (Homo sapiens, UniProt P35968); assay: Kinase inhibition assay (33P transfer), Kdr; details: Table 3; read-out: KDR-1
T9 construct: Kinases are expressed as either kinase domains or full length constructs; made in house
Procedure, shortened: as §1

Measured: IC50

T9 sequence (P35968 20-1356, species assumed): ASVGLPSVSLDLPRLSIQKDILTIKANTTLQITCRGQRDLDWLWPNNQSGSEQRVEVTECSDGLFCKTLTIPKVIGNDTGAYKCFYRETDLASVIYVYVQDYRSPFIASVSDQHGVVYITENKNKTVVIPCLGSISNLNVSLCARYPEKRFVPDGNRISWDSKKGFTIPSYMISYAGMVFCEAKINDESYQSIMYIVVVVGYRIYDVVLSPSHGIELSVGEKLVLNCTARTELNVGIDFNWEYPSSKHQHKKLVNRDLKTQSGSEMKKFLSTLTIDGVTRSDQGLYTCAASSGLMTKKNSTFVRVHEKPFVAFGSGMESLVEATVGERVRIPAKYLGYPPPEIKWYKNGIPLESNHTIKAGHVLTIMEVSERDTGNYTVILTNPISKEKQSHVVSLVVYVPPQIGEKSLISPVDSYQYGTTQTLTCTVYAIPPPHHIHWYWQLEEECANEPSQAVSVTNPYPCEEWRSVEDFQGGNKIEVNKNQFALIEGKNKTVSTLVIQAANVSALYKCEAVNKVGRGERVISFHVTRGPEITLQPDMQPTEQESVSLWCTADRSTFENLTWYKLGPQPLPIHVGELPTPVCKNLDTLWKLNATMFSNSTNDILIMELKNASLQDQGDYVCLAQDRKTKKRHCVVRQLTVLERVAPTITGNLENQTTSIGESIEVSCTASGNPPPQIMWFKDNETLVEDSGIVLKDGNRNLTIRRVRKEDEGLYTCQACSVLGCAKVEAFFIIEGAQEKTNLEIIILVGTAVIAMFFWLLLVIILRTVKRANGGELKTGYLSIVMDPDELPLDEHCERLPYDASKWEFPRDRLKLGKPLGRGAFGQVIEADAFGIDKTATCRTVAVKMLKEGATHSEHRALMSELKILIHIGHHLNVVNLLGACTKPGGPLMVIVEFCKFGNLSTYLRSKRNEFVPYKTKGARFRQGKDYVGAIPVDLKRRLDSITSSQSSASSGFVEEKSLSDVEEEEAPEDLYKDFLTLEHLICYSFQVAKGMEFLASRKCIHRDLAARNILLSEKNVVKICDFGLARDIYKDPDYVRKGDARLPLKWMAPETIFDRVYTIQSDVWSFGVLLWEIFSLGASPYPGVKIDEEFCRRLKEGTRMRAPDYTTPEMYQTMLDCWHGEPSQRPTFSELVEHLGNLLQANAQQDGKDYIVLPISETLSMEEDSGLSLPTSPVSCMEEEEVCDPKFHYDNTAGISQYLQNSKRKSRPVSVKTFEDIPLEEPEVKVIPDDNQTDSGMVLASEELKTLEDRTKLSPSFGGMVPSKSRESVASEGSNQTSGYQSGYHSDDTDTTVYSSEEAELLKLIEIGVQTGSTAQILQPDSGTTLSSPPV
T6 sequence (P06239 whole entry, species assumed, the tested form may be a part): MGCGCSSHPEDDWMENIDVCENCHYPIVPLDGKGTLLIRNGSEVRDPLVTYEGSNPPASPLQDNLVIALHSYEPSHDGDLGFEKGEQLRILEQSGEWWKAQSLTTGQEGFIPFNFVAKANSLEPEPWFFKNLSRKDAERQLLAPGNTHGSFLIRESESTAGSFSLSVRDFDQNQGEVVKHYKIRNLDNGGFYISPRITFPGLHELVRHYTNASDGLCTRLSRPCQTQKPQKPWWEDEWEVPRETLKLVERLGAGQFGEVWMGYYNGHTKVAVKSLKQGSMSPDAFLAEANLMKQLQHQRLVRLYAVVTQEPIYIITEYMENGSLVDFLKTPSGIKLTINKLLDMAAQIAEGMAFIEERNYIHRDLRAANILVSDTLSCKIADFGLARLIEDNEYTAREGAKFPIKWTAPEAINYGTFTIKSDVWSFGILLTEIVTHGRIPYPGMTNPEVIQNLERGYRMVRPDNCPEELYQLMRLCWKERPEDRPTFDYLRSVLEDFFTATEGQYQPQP
T4 sequence (P08581 25-1390): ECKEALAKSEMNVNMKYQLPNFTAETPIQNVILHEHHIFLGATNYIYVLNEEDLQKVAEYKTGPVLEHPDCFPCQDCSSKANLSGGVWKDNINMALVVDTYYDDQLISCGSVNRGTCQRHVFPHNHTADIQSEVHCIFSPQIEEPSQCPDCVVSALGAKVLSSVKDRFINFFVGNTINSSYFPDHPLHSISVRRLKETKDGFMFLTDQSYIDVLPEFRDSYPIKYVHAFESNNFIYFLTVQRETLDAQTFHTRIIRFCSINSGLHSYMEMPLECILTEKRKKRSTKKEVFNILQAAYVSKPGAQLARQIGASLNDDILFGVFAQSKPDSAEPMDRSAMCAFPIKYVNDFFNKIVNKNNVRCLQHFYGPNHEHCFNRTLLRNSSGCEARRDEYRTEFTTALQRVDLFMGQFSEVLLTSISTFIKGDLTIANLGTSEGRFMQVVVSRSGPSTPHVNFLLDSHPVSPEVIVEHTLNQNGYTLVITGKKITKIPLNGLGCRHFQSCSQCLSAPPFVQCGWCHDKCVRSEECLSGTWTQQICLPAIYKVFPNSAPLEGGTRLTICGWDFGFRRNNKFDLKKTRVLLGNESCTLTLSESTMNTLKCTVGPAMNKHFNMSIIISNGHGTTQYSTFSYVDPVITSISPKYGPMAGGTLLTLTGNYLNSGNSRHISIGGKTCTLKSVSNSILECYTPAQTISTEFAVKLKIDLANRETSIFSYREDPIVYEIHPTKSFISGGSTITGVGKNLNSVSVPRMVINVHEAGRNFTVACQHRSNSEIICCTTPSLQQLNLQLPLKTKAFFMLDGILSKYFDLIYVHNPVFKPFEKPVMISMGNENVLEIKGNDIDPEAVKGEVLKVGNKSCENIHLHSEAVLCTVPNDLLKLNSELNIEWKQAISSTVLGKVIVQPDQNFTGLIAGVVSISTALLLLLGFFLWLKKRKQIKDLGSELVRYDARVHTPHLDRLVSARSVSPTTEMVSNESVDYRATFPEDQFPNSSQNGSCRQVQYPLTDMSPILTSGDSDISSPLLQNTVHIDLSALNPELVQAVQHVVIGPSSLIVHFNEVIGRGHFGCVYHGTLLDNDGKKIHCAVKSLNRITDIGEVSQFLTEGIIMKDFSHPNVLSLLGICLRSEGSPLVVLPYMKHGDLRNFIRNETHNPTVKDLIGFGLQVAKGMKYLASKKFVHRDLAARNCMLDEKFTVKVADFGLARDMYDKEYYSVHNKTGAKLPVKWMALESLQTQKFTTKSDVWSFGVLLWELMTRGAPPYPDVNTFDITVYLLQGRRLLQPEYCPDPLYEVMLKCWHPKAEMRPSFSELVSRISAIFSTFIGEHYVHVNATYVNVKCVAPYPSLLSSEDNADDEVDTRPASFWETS
T1 sequence (Q9Y243 whole entry, the tested form may be a part): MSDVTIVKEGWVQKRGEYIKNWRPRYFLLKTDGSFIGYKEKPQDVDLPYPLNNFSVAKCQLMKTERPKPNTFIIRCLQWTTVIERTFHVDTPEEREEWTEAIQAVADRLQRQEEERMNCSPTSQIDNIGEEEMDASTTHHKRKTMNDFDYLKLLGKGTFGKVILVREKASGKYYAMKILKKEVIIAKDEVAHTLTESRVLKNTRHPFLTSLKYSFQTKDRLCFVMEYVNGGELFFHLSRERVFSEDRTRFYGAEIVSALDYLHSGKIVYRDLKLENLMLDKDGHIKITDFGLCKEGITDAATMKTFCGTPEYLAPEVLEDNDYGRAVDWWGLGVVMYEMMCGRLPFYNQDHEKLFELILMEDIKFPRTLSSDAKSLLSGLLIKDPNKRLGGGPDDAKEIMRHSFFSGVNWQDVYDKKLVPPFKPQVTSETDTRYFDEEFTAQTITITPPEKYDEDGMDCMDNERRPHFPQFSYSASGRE
T7 sequence (P00533 25-1210, species assumed): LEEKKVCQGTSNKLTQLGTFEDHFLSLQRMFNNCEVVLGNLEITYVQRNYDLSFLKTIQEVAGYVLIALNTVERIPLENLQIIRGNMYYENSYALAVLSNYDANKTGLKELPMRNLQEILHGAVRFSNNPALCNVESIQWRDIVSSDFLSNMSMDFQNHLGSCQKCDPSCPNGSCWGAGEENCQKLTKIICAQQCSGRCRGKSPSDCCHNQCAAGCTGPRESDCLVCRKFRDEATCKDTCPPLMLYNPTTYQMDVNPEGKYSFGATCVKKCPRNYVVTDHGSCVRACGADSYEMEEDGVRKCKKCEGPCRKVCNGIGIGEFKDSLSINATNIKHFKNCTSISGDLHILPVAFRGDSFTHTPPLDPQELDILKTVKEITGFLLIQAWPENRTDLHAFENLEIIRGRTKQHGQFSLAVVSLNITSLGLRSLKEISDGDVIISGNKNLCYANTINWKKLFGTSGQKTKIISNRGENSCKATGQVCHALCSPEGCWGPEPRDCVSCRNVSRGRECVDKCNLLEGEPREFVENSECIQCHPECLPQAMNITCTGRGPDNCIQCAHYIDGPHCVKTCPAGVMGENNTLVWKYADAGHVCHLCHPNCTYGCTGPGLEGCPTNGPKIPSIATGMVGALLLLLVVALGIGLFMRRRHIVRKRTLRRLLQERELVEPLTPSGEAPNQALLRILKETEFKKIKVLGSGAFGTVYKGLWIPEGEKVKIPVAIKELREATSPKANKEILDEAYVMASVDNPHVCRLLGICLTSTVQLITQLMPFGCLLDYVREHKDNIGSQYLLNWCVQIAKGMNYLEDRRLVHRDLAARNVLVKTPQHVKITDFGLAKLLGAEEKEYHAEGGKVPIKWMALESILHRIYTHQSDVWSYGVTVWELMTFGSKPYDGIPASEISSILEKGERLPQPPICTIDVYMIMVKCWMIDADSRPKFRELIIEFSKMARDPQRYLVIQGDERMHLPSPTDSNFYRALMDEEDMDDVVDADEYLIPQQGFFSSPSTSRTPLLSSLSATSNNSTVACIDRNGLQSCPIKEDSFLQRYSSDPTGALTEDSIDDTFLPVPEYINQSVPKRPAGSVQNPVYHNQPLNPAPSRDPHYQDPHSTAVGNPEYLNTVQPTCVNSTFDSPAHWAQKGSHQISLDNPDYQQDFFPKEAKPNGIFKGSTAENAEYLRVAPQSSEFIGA

COc1cccc(Nc2ncnc(Nc3ccc(OCc4ccccc4)cc3)n2)c1 [Compound 160]
1 to 6.01 µM: EGFR
> 11.3 µM: Zap-70 | Itk | Tek | Lck | IGFR-1 | Kdr
8.76 to 11.3 µM: AKT | c-Met

COc1cc(Nc2ncnc(-n3ccc4cccnc43)n2)cc(OC)c1OC [Compound 327]
1.06 to 6.34 µM: Itk | Lck
> 11.9 µM: AKT | Zap-70 | c-Met | EGFR | Kdr
6.34 to 9.25 µM: IGFR-1

FC(F)C(F)(F)Oc1cccc(Nc2ncnc(-c3ccnc(N4CCCCC4)c3)n2)c1 [Compound 346]
0.892 to 5.35 µM: Kdr
> 10 µM: AKT | Zap-70 | Itk | c-Met | Lck | EGFR | IGFR-1

COc1cc(Nc2ncnc(-n3cc(OC(C)=O)c4ccccc43)n2)cc(OC)c1OC [Compound 205]
> 10.3 µM: AKT | Zap-70 | Itk | c-Met | Lck | EGFR | IGFR-1
5.51 to 8.04 µM: Kdr

CC(=O)Nc1ccc(Nc2ncnc(-c3cccs3)n2)cc1 [Compound 355]
> 14.5 µM: AKT | Zap-70 | Itk | c-Met | Lck | EGFR | IGFR-1 | Kdr

COc1cc(Nc2ncnc(-n3c(NCCCCO)nc4ccccc43)n2)cc(OC)c1OC [Compound 392]
5.16 to 7.52 µM: Lck
> 9.67 µM: AKT | Zap-70 | Itk | c-Met | EGFR | IGFR-1
0.859 to 5.16 µM: Kdr

COc1cc(Nc2ncnc(N3CCN(c4ncccn4)CC3)n2)cc(OC)c1OC [Compound 214]
0.942 to 5.65 µM: Kdr
> 10.6 µM: AKT | Zap-70 | Itk | Lck | EGFR | IGFR-1
5.65 to 8.25 µM: c-Met

c1ccc(COc2cccc(Nc3ncnc(-c4cccs4)n3)c2)cc1 [Compound 361]
> 12.5 µM: AKT | Zap-70 | Itk | c-Met | Lck | EGFR | IGFR-1 | Kdr

COc1cc(Nc2ncnc(Nc3ncncn3)n2)cc(OC)c1OC [Compound 254]
> 12.6 µM: AKT | Zap-70 | Itk | c-Met | Lck | EGFR | IGFR-1 | Kdr

COc1cc(Nc2ncnc(N3CCN(C(=O)OC(C)(C)C)CC3)n2)cc(OC)c1OC [Compound 211]
5.38 to 7.84 µM: Kdr
> 10.1 µM: AKT | Zap-70 | Itk | c-Met | Lck | EGFR | IGFR-1

NC(=O)c1cccc(Nc2ncnc(-c3ccccc3)n2)c1 [Compound 151]
> 15.4 µM: AKT | Zap-70 | Itk | c-Met | Lck | EGFR | IGFR-1
12 to 15.4 µM: Kdr

COc1cc(Nc2ncnc(N3CCCC3)n2)cc(OC)c1OC [Compound 181]
> 13.6 µM: AKT | Zap-70 | Itk | c-Met | Lck | EGFR | IGFR-1 | Kdr
